# Test results reported in patent publication US4760147A, “Optically active, substituted 1,4-dihydropyridines and their use as medicaments” (Cassella Aktiengesellschaft, priority 1984, dated 1988).
# Tested on: spiral strips of the arteria pulmonalis of guineapigs
# Assay: calcium-antagonistic action: relaxing effect on potassium-depolarised, CaCl2-contracted spiral strips of the arteria pulmonalis (modified method of Godfraind and Kaba and of Schumann et al)
# Type: cell-based
# Details: depolarised with 40 mmol potassium; contraction triggered by 0.5 mmol CaCl2; mean value of 4 to 6 vascular strips; read-out: IC50 (concentration which inhibits the contraction by 50%)
# Experimental: In these experiments, spiral strips of the arteria pulmonalis of guineapigs are depolarised with 40 mmol of potassium, after equilibration in calcium-freeTyrode's solution. The addition of 0.5 mmol of CaCl2 then triggers off contraction. The relaxing effect of the test substance is determined by cumulative addition in 1/2 log 10 graduated concentrations. The concentration of the test substance which inhibits the contraction by 50% (=IC50, mole/l) is determined from the concentration/effect curve (abscissa: -log mole/l of test substance, ordinate: % inhibition of the maximum contraction, mean value of 4 to 6 vascular strips).
row,IC50 [nM],SMILES
1,0.04,"CC1=C(C(=O)OC(C)C)C(c2cccc(Cl)c2Cl)C(c2nnco2)=C(C)N1 (single isomer, unassigned) [Example 1e, Isopropyl (-)-1,4-dihydro-2,6-dimethyl-3-(1,3,4-oxadiazol-2-yl)-4-(2,3-dichlorophenyl)-pyridine-5-carboxylate]"
2,0.04,"CCOC(=O)[C@@H](C)OC(=O)C1=C(C)NC(C)=C(c2nnco2)C1c1cccc(Cl)c1Cl (single isomer, unassigned) [Example 8c]"

# More lines, now with the values behind:
row,SMILES,IC50 [nM]
1,"COC(=O)C1=C(C)NC(C)=C(c2nnco2)C1c1cccc(Cl)c1Cl (single isomer, unassigned) [Example 2, Methyl (-)-1,4-dihydro-2,6-dimethyl-3-(1,3,4-oxadiazol-2-yl)-4-(2,3-dichlorophenyl)-pyridine-5-carboxylate]",0.2
2,"CCOC(=O)C1=C(C)NC(C)=C(c2nnco2)C1c1cccc(Cl)c1Cl (single isomer, unassigned) [Example 3, Ethyl (-)-1,4-dihydro-2,6-dimethyl-3-(1,3,4-oxadiazol-2-yl)-4-(2,3-dichlorophenyl)-pyridine-5-carboxylate]",0.07
3,"COCCOC(=O)C1=C(C)NC(C)=C(c2nnco2)C1c1cccc(Cl)c1Cl (single isomer, unassigned) [Example 4, Methoxyethyl (-)-1,4-dihydro-2,6-dimethyl-3-(1,3,4-oxadiazol-2-yl)-4-(2,3-dichlorophenyl)-pyridine-5-carboxylate]",0.3
4,"CC1=C(C(=O)OCCOC(C)C)C(c2cccc(Cl)c2Cl)C(c2nnco2)=C(C)N1 (single isomer, unassigned) [Example 16, 2-isopropoxy-ethyl (-)-1,4-dihydro-2,6-dimethyl-3-(1,3,4-oxadiazol-2-yl)-4-(2,3-dichlorophenyl)-pyridine-5-carboxylate]",0.1
